Experimental findings from US7880007B2, “Bicyclic substituted phenyl piperidine modulators of muscarinic receptors” (Vertex Pharmaceuticals Incorporated, priority 2004, dated 2011) are described below.

The Emax is the maximal effect, on the per cent scale that the assay sets.

Format in all cases: cell-based
For experiment [1], the target named is T1, M2 muscarinic receptor (Homo sapiens, UniProt P08172).
T1 construct: expressed in transfected cells; host or cells: CHO (M2-CHO)
T1 sequence (P08172 1-466): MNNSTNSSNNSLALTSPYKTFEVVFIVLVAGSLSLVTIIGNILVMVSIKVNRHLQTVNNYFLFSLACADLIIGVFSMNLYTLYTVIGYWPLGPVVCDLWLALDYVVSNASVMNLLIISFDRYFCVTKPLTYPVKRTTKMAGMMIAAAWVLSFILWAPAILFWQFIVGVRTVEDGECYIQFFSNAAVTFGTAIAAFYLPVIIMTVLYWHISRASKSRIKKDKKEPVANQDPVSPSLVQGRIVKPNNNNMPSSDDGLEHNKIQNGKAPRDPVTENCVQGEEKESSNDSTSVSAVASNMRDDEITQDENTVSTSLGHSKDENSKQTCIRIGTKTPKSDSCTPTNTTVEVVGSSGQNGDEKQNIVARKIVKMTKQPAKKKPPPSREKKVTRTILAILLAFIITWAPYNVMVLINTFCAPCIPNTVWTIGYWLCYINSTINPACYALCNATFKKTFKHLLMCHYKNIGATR
The experiment is described as follows: Functional mobilization of intracellular calcium (FLIPR), M2-CHO cells. Particulars: for Emax: 100% efficacy = maximum response obtained with the Carbachol control; for M2 Activity: M2-CHO cells, calcium mobilization (FLIPR). On the procedure: (§1) Functional Mobilization of Intracellular Calcium to Determine Muscarinic Receptor Activity:
(§2) CHO cells expressing muscarinic receptors (M1 to M5) are grown as monolayers in tissue culture flasks at 37° C. in a humidified atmosphere containing 5% CO2 and passaged every 3-5 days. The growth media is Dulbecco's modified eagles medium (DMEM, Gibco Cat #12430-054), containing 25 mM Hepes and supplemented with Fetal Bovine Serum (Hyclone, cat #SH30071.03), 0.1 mM of MEM non-essential amino acids (GIBCO, Cat #11140-050), 1 mM MEM Sodium Pyruvate (GIBCO Cat #11360-070) and 100 units/ml of Penicillin G and 100 μg/ml of Streptomycin (GIBCO Cat #15140-122). The recombinant muscarinic receptor cell lines are grown under antibiotic pressure with media containing 25 μg/ml zeocin and 500 μg/ml G418 (M1-CHO), 4 μg/ml puromycin, 50 μg/ml zeocin and 2.5 μg/ml blasticidin (M2 and M4-CHO) or 50 μg/ml zeocin and 4 μg/ml puromycin (M3 and M5-CHO).
(§3) Cells are harvested at 80-90% confluence using Versene (GIBCO Cat #15040-066), collected by centrifugation and seeded 18-24 hrs prior to running the calcium assay at a density of 5,000-10,000 cells/well in […], clear-bottomed 384-well plates (BD Biocoat, poly-D-lysine, Cat #356663). The day of the experiment, the cells are washed with a plate washer (Bioteck Instruments, ELX 405) using bath 1 buffer (140-mM NaCl, 4.5-mM KCl, 2-mM CaCl2, 1-mM MgCl2, 10-mM Hepes-Na, 10-mM Glucose, pH 7.4, with NaOH) containing 1 mM Probenecid. Next, the calcium dye Fluo-3 (25 μl/well of Fluo-3 AM at 4 μM, Molecular Probes F-1241, in Bath 1 buffer containing 1 mM Probenecid) is added to the 25 μl of Bath 1 remaining in each well after the plate wash and the dye is loaded at 37° C. in the tissue culture incubator for 60-90 min. The fluorescent dye is removed using the plate washer with Bath 1 containing 1 mM Probenecid, leaving 25 μl/well of this solution after the wash. Alternatively, cells can be loaded with the calcium indicator from Molecular Devices (Calcium 3 Assay Reagents, Cat #R7181) adding 5 μl of a 5× solution dye in Bath 1 containing 1 mM Probenecid (10 ml per dye flask cat #R7182 to generate a solution 20×) to 20 μl of the same buffer. After loading for 60 min, the experiment can be run without having to remove the dye.
(§4) Compounds are prepared at a 2× fold concentration in a 96-well plate (round bottom, Costar Corning cat #3656), by reconstituting the pre-spotted compounds in bath 1 containing 1 mM probenecid. The final concentration DMSO is 0.5%, and the amount of DMSO is normalized across the assay plate. To determine an agonist action of the compounds on muscarinic receptors, the reconstituted compounds are added (25 μl compound/well) to the cell assay plate (containing 25 μl/well) using the multi-channel robotic system of the FLIPR 3 Instrument (Molecular Devices, Sunnyvale, Calif.). To determine a functional inhibitory action of the compounds on muscarinic receptors, the reconstituted compounds are added (25 μl compound/well) to the assay plate and pre-incubated for 15 min prior to adding 25 μl of Carbachol at 3× the EC80 for each muscarinic subtype. Alternatively, the compounds can be co-applied simultaneously with the agonist. In both assay modes, the fluorescence is recorded for 60 sec (excitation wavelength is […] and emission wavelength 540 nm) using the FLIPR 3 instrument.
(§5) The potency, efficacy and selectivity of the muscarinic compounds were evaluated by screening the compound activity across the whole family (M1 to M5 cells). Compounds were also screened for activity on other proteins such as other GPCRs and ion channels to determine selectivity on M4 receptors.
(§6) Examples of activities and efficacies of the muscarinic compounds of formulae (I, Ia, Ib, and II) on modulating M1, M2, M3 and M4 receptors are shown below in Table 3. […]
Background: Calcium assays in cells follow changes in intracellular calcium, usually with a dye or a luminescent sensor.

Experiment [2] addresses T2, M4 muscarinic receptor (Homo sapiens, UniProt P08173).
T2 construct: expressed in transfected cells; host or cells: CHO (M4-CHO)
T2 sequence (P08173 1-479): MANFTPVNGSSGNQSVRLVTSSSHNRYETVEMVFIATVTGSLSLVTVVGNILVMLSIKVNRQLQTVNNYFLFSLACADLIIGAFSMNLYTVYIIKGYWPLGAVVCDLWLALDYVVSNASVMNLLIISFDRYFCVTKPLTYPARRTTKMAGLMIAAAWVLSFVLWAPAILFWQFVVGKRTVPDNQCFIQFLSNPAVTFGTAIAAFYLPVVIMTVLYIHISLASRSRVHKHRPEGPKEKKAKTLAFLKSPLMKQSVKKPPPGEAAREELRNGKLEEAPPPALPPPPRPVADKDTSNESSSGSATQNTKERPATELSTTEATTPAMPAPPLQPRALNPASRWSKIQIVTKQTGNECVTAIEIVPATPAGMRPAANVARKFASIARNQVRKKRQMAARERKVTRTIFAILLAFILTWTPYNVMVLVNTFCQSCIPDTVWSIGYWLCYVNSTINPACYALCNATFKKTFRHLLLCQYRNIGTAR
The experiment is described as follows: Functional mobilization of intracellular calcium (FLIPR), M4-CHO cells. Particulars: for Emax: 100% efficacy = maximum response obtained with the Carbachol control; for M4 Activity: M4-CHO cells, calcium mobilization (FLIPR). On the procedure:
as §1, §2, §3, §4, §5, §6

Experiment [3] addresses T3, M1 muscarinic receptor (Homo sapiens, UniProt P11229).
T3 construct: expressed in transfected cells; host or cells: CHO (M1-CHO)
T3 sequence (P11229 1-460): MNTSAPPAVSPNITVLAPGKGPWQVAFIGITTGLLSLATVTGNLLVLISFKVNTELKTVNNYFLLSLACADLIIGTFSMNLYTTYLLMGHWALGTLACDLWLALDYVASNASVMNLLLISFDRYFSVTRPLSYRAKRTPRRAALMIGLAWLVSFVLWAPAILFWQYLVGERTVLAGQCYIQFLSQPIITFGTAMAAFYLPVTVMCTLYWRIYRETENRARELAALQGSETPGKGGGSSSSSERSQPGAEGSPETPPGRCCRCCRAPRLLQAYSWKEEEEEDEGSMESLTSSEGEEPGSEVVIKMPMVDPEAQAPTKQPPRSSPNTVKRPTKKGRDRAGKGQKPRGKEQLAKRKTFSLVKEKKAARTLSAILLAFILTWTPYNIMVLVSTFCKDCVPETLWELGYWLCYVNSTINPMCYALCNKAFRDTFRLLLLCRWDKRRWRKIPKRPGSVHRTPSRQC
The experiment is described as follows: Functional mobilization of intracellular calcium (FLIPR), M1-CHO cells. Particulars: for Emax: 100% efficacy = maximum response obtained with the Carbachol control; for M1 Activity: M1-CHO cells, calcium mobilization (FLIPR). The method, then: as §1, §2, §3, §4, §5, §6

Regarding `COc1ccc(Cl)cc1C1(O)CCN(C2CCCCC2)CC1` [Compound 99], in experiment [1], the Emax is below 25% and the “M2 Activity” value is “+ (activity was measured to be greater than 5.0 μM)”. Besides, in experiment [2], the Emax was 25 to 100% and the “M4 Activity” value is “++ (activity was measured to be from 1.0 μM to 5.0 μM)”. Moreover, in experiment [3], the maximal effect (Emax) is below 25% and the “M1 Activity” value was “+ (activity was measured to be greater than 5.0 μM)”.
For the compound `COc1ccc(Cl)cc1C1(OC)CCN(C2CCCCCC2)CC1` [Compound 101], in experiment [1], the Emax is below 25% and the “M2 Activity” value is “+ (activity was measured to be greater than 5.0 μM)”. For the same compound, in experiment [2], the Emax lay in the range of 25 to 100% and the “M4 Activity” value is listed as “+++ (activity was measured to be less than 1.0 μM)”. Further, in experiment [3], the Emax lay within 25 to 100% and the “M1 Activity” value is “++ (activity was measured to be from 1.0 μM to 5.0 μM)”.
`COc1ccc(C)cc1C1CCN(CC2C[C@H]3CC[C@H]2C3)CC1` (stereo partly drawn) [Compound 107]: in experiment [1], the Emax was below 25% and the “M2 Activity” value is listed as “+ (activity was measured to be greater than 5.0 μM)”. Also, in experiment [2], the Emax was 25 to 100% and the “M4 Activity” value is “+++ (activity was measured to be less than 1.0 μM)”. In addition, in experiment [3], the Emax lay within 25 to 100% and the “M1 Activity” value is “+ (activity was measured to be greater than 5.0 μM)”.
Turning to `CCCC1CCC(N2CCC(c3cc(F)ccc3OC)CC2)CC1` (stereo not drawn) [Compound 125], in experiment [1], the Emax lay in the range of 25 to 100% and the “M2 Activity” value was “++ (activity was measured to be from 1.0 μM to 5.0 μM)”. In experiment [2], the Emax was in the range of 25 to 100% and the “M4 Activity” value was “+++ (activity was measured to be less than 1.0 μM)”. Besides, in experiment [3], the Emax lay in the range of 25 to 100% and the “M1 Activity” value is “+++ (activity was measured to be less than 1.0 μM)”.
In the case of `CCOC(=O)N1C2CCC1CC(N1CCC(C#N)(c3ccccc3OC)CC1)C2` (stereo not drawn) [Compound 131], in experiment [1], the Emax was below 25% and the “M2 Activity” value is given as “+ (activity was measured to be greater than 5.0 μM)”. For the same compound, in experiment [2], the Emax lay within 25 to 100% and the “M4 Activity” value was “+++ (activity was measured to be less than 1.0 μM)”. In experiment [3], the Emax was in the range of 25 to 100% and the “M1 Activity” value is recorded as “+++ (activity was measured to be less than 1.0 μM)”.
Take `COc1ccccc1C1(C#N)CCN(C2CC3CCC2C3)CC1` (stereo not drawn) [Compound 136]: in experiment [1], the Emax is below 25% and the “M2 Activity” value is “+ (activity was measured to be greater than 5.0 μM)”. For the same compound, in experiment [2], the Emax was in the range of 25 to 100% and the “M4 Activity” value was “++ (activity was measured to be from 1.0 μM to 5.0 μM)”. In addition, in experiment [3], the maximum response (Emax) was 25 to 100% and the “M1 Activity” value is listed as “+ (activity was measured to be greater than 5.0 μM)”.
`COc1ccc(Cl)cc1C1CCN(CC2CC3C=CC2C3)CC1` (stereo not drawn) [Compound 141]: in experiment [1], the Emax was in the range of 25 to 100% and the “M2 Activity” value is on record as “++ (activity was measured to be from 1.0 μM to 5.0 μM)”. In addition, in experiment [2], the Emax fell in the range of 25 to 100% and the “M4 Activity” value is given as “+++ (activity was measured to be less than 1.0 μM)”. Also, in experiment [3], the Emax lay in the range of 25 to 100% and the “M1 Activity” value is “++ (activity was measured to be from 1.0 μM to 5.0 μM)”.
`CCOC(=O)N1[C@@H]2CC[C@@H]1CC(N1CCC(c3cc(F)ccc3C)CC1)C2` (stereo partly drawn) [Compound 145]: in experiment [1], the Emax lay in the range of 25 to 100% and the “M2 Activity” value is on record as “+++ (activity was measured to be less than 1.0 μM)”. In experiment [2], the Emax is 25 to 100% and the “M4 Activity” value is “+++ (activity was measured to be less than 1.0 μM)”. In experiment [3], the Emax was in the range of 25 to 100% and the “M1 Activity” value is recorded as “+++ (activity was measured to be less than 1.0 μM)”.
With `COc1ccc(C2CCN(CC3C[C@H]4CC[C@H]3C4)CC2)c(OC)c1` (stereo partly drawn) [Compound 159], in experiment [1], the Emax is below 25% and the “M2 Activity” value was “+ (activity was measured to be greater than 5.0 μM)”. In experiment [2], the Emax is below 25% and the “M4 Activity” value is “++ (activity was measured to be from 1.0 μM to 5.0 μM)”. In experiment [3], the Emax is below 25% and the “M1 Activity” value is given as “+ (activity was measured to be greater than 5.0 μM)”.
Take `CCCC1CCC(N2CCC(O)(c3cc(Cl)ccc3OC)CC2)CC1` (stereo not drawn) [Compound 164]: in experiment [1], the Emax was below 25% and the “M2 Activity” value was “+ (activity was measured to be greater than 5.0 μM)”. In experiment [2], the Emax lay in the range of 25 to 100% and the “M4 Activity” value was “++ (activity was measured to be from 1.0 μM to 5.0 μM)”. In experiment [3], the Emax was below 25% and the “M1 Activity” value was “+ (activity was measured to be greater than 5.0 μM)”.
For the compound `COc1ccc(NC(C)=O)cc1C1CCN(CC2C[C@H]3CC[C@H]2C3)CC1` (stereo partly drawn) [Compound 166], in experiment [1], the Emax was below 25% and the “M2 Activity” value is listed as “+ (activity was measured to be greater than 5.0 μM)”. Moreover, in experiment [2], the Emax is below 25% and the “M4 Activity” value was “+ (activity was measured to be greater than 5.0 μM)”. In addition, in experiment [3], the Emax was below 25% and the “M1 Activity” value was “+ (activity was measured to be greater than 5.0 μM)”.
